Measurements as given in patent US20200331850A1, “NOVEL SULFONAMIDE CARBOXAMIDE COMPOUNDS” (Inflazome Limited, priority 2017, published 2020).
Structures can show the parent of a compound that is named as a salt.

How the values were obtained:
[1] = molecular target: T1, NLRP3 (Homo sapiens, UniProt Q96P20); assay: Human whole blood IL1β release assay (LPS + nigericin, AlphaLisa IL-1β); assay type: cell-based; design: Plate out 80 μl of whole blood containing 1βg/ml of LPS in 96-well, clear bottom cell culture plate; from tissue; host or cells: human whole blood from healthy donors, LPS-primed and nigericin-stimulated; settings: NLRP3 inhibitory activity in human whole blood, IL-1β release, 10 μM nigericin, read-out: HWB IC50
Procedure: For systemic delivery, the ability to inhibit NLRP3 when the compounds are present within the bloodstream is of great importance. For this reason, the NLRP3 inhibitory activity of a number of compounds in human whole blood was investigated in accordance with the following protocol.
Human whole blood in Li-heparin tubes was obtained from healthy donors from a volunteer donor panel. • 1. Plate out 80 μl of whole blood containing 1βg/ml of LPS in 96-well, clear bottom cell culture plate (Corning #3585) • 2. Add 10 μl compound (8 points half-log dilution with 10 μM top dose) or vehicle (DMSO 0.1% FAC) to the appropriate wells • 3. Incubate for 3 hrs at 37° C., 5% CO2 • 4. Add 10 μl Nigericin (Sigma # N7143) (10 μM FAC) to all wells • 5. Incubate for 1 hr at 37° C., 5% CO2 • 6. At the end of the incubation period, spin plates at 300×g for 5 mins to pellet cells and remove 20 μl of supernatant and add to 96-well v-bottom plates for IL-1β analysis (note: these plates containing the supernatants can be stored at −80° C. to be analysed at a later date) • 7. IL-1β was measured according to the manufacturer protocol (Perkin Elmer-AlphaLisa IL-1 Kit AL220F-5000) • 8. IC50 data is fitted to a non-linear regression equation (log inhibitor vs response-variable slope 4-parameters)

[2] = PK protocol: pharmacokinetic parameters in male Sprague Dawley rats (intravenous or oral); assay type: in vivo; settings: plasma, rat; for Vd: read-out: Vdss
Procedure: Pharmacokinetic parameters were determined in male Sprague Dawley rats (Charles River, UK, 250-350 g; or Vital River Laboratory Animal Technology Co Ltd, Beijing, China, 7-9 weeks old). Animals were individually housed during the study and maintained under a 12 h light/dark cycle.
For intravenous administration, compounds were formulated as a solution in water or DMSO:PBS [10:90] in 2 mL/kg dosing volume and administered via tail vein. For oral administration, compounds were formulated as a solution in DMSO:water [10:90] in 5 mL/kg dosing volume and administered orally.
Serial blood samples (about 120-300 μL) were taken from each animal at each of 8 time-points post dose (0.083, 0.25, 0.5, 1, 2, 4, 8 and 24 h) or at each of 12 time-points post dose (0.03, 0.1, 0.17, 0.25, 0.5, 1, 2, 4, 6, 8, 12 and 24 h) or pre-dose and at each of 9 time-points post dose (0.25, 0.5, 1, 2, 4, 6, 8, 12 and 24 h). Samples were held on ice for no longer than 30 minutes before centrifugation (10,000 rpm (8,385 g) for 3 minutes; or 5,696 rpm (3,000 g) for 15 minutes) for plasma generation. Plasma was frozen on dry ice prior to bioanalysis. PK parameters were generated from LC-MS/MS data using Dotmatics or Phoenix WinNonlin 6.3 software.

[3] = molecular target: T1, NLRP3; assay: THP-1 cells pyroptosis assay (LPS + nigericin, resazurin readout); assay type: cell-based; design: Seed THP-1 cells (25,000 cells/well) containing 1.0 μg/ml LPS in 40 μl of RPMI medium; host or cells: THP-1 cells, LPS-primed and nigericin-stimulated; settings: NLRP3 inhibitory activity in THP-1 cells, 1.0 μg/ml LPS, 5 μM nigericin
Text: It is well established that the activation of NLRP3 leads to cell pyroptosis and this feature plays an important part in the manifestation of clinical disease (Yan-gang Liu et al., Cell Death & Disease, 2017, 8(2), e2579; Alexander Wree et al., Hepatology, 2014, 59(3), 898-910; Alex Baldwin et al., Journal of Medicinal Chemistry, 2016, 59(5), 1691-1710; Ema Ozaki et al., Journal of Inflammation Research, 2015, 8, 15-27; Zhen Xie & Gang Zhao, Neuroimmunology Neuroinflammation, 2014, 1(2), 60-65; Mattia Cocco et al., Journal of Medicinal Chemistry, 2014, 57(24), 10366-10382; T. Satoh et al., Cell Death & Disease, 2013, 4, e644). Therefore, it is anticipated that inhibitors of NLRP3 will block pyroptosis, as well as the release of pro-inflammatory cytokines (e.g. IL-1β) from the cell. THP-1 cells (ATCC # TIB-202) were grown in RPMI containing L-glutamine (Gibco #11835) supplemented with 1 mM sodium pyruvate (Sigma # S8636) and penicillin (100 units/ml)/streptomycin (0.1 mg/ml) (Sigma # P4333) in 10% Fetal Bovine Serum (FBS) (Sigma # F0804). The cells were routinely passaged and grown to confluency (˜10^6 cells/ml). On the day of the experiment, THP-1 cells were harvested and resuspended into RPMI medium (without FBS). The cells were then counted and viability (>90%) checked by Trypan blue (Sigma # T8154). Appropriate dilutions were made to give a concentration of 625,000 cells/ml. To this diluted cell solution was added LPS (Sigma # L4524) to give a […] Final Assay Concentration (FAC). 40 μl of the final preparation was aliquoted into each well of a 96-well plate. The plate thus prepared was used for compound screening. The following method step-by-step assay was followed for compound screening. • 1. Seed THP-1 cells (25,000 cells/well) containing 1.0 μg/ml LPS in 40 μl of RPMI medium (without FBS) in 96-well, black walled, clear bottom cell culture plates coated with poly-D-lysine (VWR #734-0317) • 2. Add 5 μl compound (8 points half-log dilution, with 10 μM top dose) or vehicle (DMSO 0.1% FAC) to the appropriate wells • 3. […] Add 5 μl nigericin (Sigma # N7143) (FAC 5 μM) to all wells • 5. […] At the end of the incubation period, spin plates at 300×g for 3 mins and remove supernatant • 7. Then add 50 μl of resazurin (Sigma # R7017) (FAC 100 μM resazurin in RPMI medium without FBS) and incubate plates for a further 1-2 hrs at 37° C. and 5% CO2 • 8. Plates were read in an Envision reader at Ex 560 nm and Em 590 nm • 9. IC50 data is fitted to a non-linear regression equation (log inhibitor vs response-variable slope 4-parameters) The results of the pyroptosis assay performed are summarised in Table 1 below as THP IC50.

[4] = intravenous administration, 1 mg/kg

T1 sequence (Q96P20 whole entry): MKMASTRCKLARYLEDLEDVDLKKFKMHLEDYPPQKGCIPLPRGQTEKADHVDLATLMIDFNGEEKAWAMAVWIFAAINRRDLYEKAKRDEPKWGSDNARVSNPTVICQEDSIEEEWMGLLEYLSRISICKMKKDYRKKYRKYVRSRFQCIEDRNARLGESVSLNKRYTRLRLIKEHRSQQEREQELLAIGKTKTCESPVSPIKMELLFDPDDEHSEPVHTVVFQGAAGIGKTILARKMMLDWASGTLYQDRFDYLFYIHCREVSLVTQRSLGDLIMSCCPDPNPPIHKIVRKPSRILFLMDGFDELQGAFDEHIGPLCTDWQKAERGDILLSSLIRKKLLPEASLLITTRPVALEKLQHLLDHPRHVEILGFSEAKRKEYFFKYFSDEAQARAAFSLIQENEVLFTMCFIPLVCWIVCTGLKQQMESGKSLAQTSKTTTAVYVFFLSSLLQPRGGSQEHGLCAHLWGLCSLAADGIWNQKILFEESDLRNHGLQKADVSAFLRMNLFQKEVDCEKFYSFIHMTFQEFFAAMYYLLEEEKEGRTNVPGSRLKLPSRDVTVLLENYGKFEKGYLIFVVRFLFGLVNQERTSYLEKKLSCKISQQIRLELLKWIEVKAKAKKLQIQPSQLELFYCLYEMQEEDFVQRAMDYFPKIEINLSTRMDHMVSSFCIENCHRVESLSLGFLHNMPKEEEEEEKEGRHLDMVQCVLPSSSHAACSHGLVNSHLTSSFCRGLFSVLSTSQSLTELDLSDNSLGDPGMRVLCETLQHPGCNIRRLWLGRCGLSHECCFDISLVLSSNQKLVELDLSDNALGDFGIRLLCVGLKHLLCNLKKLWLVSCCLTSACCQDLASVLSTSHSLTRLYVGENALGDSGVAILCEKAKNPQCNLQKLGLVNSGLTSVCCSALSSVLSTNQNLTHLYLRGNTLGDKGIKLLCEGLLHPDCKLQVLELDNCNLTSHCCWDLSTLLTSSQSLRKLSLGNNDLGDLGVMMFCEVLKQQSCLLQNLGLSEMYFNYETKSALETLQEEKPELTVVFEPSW

Compound	IC50 [1] [µM]	AUC [2, 4] [µg·h/mL]	clearance [2, 4] [L/h/kg]	half-life [2, 4] [h]	Vd [2, 4] [L/kg]	AUC ([2]; oral administration, 3 mg/kg) [µg·h/mL]	CL/F ([2]; oral administration, 3 mg/kg) [L/h/kg]	Cmax ([2]; oral administration, 3 mg/kg) [µg/mL]	Tmax ([2]; oral administration, 3 mg/kg) [h]	bioavailability ([2]; oral administration, 3 mg/kg) [%]	half-life ([2]; oral administration, 3 mg/kg) [h]	IC50 [3] [µM]
CCN(CC)CCCS(=O)(=O)NC(=O)Nc1c2c(cc3c1CCC3)CCC2 [Example 3, 3-(Diethylamino)-N-((1,2,3,5,6,7-hexahydro-s-indacen-4-yl)carbamoyl)propane-1-sulfonamide, potassium salt]	≤ 1	1.18	0.852	1.5	0.79	2.27	1.36	0.819	0.42	64.1	1.8	
CN(C)CCCS(=O)(=O)NC(=O)Nc1c2c(cc3c1CCC3)CCC2 [Example 8, 3-(Dimethylamino)-N-((1,2,3,5,6,7-hexahydro-s-indacen-4-yl)carbamoyl)propane-1-sulfonamide, potassium salt]	≤ 1	2.35	0.426	1.1	0.49							
O=C(Nc1c2c(cc3c1CCC3)CCC2)NS(=O)(=O)CCN1CCC1 [Example 29, 2-(Azetidin-1-yl)-N-((1,2,3,5,6,7-hexahydro-s-indacen-4-yl)carbamoyl)ethane-1-sulfonamide, Potassium Salt]	≤ 1	2.78	0.36	1.3	0.53							
CCN(CC)CCCS(=O)(=O)NC(=O)Nc1c(-c2cccnc2)cc(F)cc1C(C)C [Example 37, 3-(Diethylamino)-N-((4-fluoro-2-isopropyl-6-(pyridin-3-yl)phenyl)carbamoyl)propane-1-sulfonamide]	≤ 1	0.591	1.69	0.9	0.55							
CC(C)N1CC2(COC(CS(=O)(=O)NC(=O)Nc3c4c(cc5c3CCC5)CCC4)C2)C1 (stereo not drawn) [Example 77, N-((1,2,3,5,6,7-Hexahydro-s-indacen-4-yl)carbamoyl)-1-(2-isopropyl-6-oxa-2-azaspiro[3.4]octan-7-yl)methanesulfonamide, Potassium Salt]	≤ 7.5											2 to 10
CN(C)CCCCS(=O)(=O)NC(=O)Nc1c2c(cc3c1CCC3)CCC2 [Example 82, 4-(Dimethylamino)-N-((1,2,3,5,6,7-hexahydro-s-indacen-4-yl)carbamoyl)butane-1-sulfonamide]	≤ 5											1.6 to 2
